Reference: US20120270237A9, “METHODS FOR THE IDENTIFICATION OF KINASE INTERACTING MOLECULES AND FOR THE PURIFICATION OF KINASE PROTEINS” (Cellzone AG, priority 2009, published 2012)

Columns and labels:
Test in all cases: Kinobeads competition binding, HeLa Placenta lysate mix
Design in all cases: endogenous in cells
Conditions in all cases: 10 μM free compound
AMPKa1 = AMPKa1 (Homo sapiens, UniProt Q13131)
Method: (§1) To one aliquot of cell lysate 10 μM of the free compound (FIG. 3, CZC31326) was added and allowed to bind to proteins in the lysate. Then the affinity matrix with the immobilized compound was added to capture proteins that were not interacting with the previously added free compound. Beads were separated from the lysate and bead bound proteins were eluted in SDS sample buffer and subsequently separated by SDS-Polyacrylamide gel electrophoresis (FIG. 10). Suitable gel bands were cut out and subjected to in-gel proteolytic digestion with trypsin. The second lysate aliquot was processed identically, however no free compound was added (DMSO solvent control). Peptides originating from samples 1 and 2 were labeled with iTRAQ reagents (iTRAQ 114 and iTRAQ 117) and the combined samples were analyzed with a nano-flow liquid chromatography system coupled online to a tandem mass spectrometer (LC-MS/MS) experiment followed by iTRAQ reporter ion quantification in the MS/MS spectra as described in Example 2.

AurA = molecular target: T1, AurA (Homo sapiens, UniProt O14965)
T1 sequence (O14965 1-403): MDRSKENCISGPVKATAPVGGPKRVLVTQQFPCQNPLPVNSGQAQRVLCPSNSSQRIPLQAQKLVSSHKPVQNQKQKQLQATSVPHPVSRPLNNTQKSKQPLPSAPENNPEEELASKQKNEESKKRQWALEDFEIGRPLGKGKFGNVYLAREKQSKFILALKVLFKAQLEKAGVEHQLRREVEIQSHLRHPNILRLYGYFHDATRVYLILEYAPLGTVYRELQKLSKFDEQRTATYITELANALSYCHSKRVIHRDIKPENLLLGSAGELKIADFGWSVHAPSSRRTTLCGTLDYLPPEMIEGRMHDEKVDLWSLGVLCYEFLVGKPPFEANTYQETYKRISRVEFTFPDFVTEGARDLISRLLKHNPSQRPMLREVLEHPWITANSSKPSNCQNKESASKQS
Method: as §1

CDK5 = CDK5 (Homo sapiens, UniProt Q00535)
Method: as §1

Erk1 = Erk1 (Homo sapiens, UniProt P27361)
Method: as §1

FER = FER (Homo sapiens, UniProt P16591)
Method: as §1

GSK3A = GSK3A (Homo sapiens, UniProt P49840)
Method: as §1

JAK1 = JAK1 (Homo sapiens, UniProt P23458)
Method: as §1

MAP3K4 = MAP3K4 (Homo sapiens, UniProt Q9Y6R4)
Method: as §1

MPSK1 = MPSK1 (Homo sapiens, UniProt O75716)
Method: as §1

MSK2 = MSK2 (Homo sapiens, UniProt O75676)
Method: as §1

NEK3 = molecular target: T2, NEK3 (Homo sapiens, UniProt P51956)
T2 sequence (P51956 1-506): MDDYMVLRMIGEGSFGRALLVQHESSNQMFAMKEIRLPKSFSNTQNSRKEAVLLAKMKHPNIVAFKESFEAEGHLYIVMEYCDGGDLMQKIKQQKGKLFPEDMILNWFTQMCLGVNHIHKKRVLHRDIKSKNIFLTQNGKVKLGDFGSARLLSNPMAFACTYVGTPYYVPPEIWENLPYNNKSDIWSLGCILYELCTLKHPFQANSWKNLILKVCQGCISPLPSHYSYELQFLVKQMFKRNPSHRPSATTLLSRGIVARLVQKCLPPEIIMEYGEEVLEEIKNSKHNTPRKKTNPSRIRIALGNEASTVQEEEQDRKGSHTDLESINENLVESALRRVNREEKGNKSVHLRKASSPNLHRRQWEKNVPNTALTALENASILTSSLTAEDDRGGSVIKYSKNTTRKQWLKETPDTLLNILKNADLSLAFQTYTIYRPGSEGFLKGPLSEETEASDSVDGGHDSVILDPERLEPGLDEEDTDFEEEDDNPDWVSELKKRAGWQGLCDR
Method: as §1

PKD3 = molecular target: T3, PKD3 (Homo sapiens, UniProt O94806)
T3 sequence (O94806 1-890): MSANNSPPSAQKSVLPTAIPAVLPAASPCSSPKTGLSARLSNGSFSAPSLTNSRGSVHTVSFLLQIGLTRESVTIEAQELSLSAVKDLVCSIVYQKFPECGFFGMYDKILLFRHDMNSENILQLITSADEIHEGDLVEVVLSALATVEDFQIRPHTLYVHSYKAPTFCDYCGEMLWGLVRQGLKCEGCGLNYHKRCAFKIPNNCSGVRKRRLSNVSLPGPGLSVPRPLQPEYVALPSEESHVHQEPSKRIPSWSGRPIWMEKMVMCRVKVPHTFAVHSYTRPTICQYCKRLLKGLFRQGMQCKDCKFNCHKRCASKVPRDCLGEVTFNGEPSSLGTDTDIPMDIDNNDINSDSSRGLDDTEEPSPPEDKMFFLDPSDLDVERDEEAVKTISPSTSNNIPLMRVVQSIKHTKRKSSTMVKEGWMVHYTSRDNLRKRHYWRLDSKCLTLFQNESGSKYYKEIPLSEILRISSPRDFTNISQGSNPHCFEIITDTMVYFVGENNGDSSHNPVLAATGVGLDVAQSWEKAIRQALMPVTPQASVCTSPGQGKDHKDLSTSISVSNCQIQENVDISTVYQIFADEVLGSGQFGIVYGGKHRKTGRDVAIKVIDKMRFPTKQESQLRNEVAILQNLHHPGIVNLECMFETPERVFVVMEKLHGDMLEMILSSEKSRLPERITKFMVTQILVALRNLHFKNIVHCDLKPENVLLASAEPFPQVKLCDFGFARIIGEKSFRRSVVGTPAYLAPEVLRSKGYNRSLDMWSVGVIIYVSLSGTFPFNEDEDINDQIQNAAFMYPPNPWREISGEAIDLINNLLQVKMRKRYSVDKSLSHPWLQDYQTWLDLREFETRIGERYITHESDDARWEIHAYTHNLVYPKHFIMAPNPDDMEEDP
Method: as §1

RIPK2 = RIPK2 (Homo sapiens, UniProt O43353)
Method: as §1

GSK3A, sequence (P49840 whole entry): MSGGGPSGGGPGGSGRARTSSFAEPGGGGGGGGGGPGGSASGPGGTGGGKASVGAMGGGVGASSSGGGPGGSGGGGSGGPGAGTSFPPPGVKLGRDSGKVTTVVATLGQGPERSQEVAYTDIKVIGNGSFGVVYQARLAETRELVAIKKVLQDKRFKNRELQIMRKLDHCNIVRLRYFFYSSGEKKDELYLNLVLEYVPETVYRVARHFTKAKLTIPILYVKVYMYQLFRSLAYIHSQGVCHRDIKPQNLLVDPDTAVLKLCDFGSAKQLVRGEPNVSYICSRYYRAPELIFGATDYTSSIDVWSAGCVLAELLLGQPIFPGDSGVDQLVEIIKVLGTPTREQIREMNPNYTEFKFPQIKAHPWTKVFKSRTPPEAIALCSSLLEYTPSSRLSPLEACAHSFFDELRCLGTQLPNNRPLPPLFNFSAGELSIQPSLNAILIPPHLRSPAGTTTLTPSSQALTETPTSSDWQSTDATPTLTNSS
AMPKa1, sequence (Q13131 whole entry): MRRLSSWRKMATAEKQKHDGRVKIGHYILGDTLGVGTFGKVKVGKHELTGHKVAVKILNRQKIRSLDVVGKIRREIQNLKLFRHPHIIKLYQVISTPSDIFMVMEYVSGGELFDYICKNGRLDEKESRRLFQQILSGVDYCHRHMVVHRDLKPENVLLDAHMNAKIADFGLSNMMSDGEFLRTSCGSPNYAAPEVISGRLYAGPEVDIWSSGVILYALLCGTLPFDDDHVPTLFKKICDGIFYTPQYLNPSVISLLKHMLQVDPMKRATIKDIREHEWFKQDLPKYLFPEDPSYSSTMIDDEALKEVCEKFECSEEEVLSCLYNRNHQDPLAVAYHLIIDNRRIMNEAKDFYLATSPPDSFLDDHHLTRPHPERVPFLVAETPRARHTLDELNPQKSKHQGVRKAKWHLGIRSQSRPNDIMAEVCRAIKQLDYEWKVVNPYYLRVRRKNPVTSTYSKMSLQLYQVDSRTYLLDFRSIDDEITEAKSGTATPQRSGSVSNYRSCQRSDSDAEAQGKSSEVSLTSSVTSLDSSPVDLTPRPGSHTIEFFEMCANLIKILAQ
AMPKa1, sequence (Q9Y478 2-270 partner limits assumed): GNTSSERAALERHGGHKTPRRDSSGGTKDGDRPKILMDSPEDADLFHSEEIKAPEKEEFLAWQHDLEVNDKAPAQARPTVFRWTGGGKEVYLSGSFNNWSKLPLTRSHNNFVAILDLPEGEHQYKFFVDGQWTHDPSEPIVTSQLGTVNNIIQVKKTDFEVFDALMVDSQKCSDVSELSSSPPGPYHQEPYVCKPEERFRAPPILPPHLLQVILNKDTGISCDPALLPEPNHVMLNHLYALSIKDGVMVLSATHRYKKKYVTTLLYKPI
AMPKa1, sequence (P54619 whole entry partner): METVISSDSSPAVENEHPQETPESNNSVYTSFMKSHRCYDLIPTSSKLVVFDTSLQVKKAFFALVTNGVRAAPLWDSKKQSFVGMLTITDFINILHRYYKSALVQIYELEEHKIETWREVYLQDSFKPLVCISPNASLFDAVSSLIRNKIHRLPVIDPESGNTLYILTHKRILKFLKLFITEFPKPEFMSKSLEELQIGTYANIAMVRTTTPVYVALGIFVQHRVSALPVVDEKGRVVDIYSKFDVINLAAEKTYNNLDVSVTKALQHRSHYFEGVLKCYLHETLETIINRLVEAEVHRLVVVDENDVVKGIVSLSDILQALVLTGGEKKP
Erk1, sequence (P27361 whole entry): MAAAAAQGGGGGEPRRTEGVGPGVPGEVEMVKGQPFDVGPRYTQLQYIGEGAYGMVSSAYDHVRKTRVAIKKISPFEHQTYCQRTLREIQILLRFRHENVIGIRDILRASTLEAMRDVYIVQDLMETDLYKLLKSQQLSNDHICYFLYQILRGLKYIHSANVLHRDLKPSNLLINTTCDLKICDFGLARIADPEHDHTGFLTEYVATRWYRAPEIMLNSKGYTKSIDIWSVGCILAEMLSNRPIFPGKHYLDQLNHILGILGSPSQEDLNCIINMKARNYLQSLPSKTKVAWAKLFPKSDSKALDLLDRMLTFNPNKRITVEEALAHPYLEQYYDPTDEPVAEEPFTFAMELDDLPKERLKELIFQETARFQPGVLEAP
MAP3K4, sequence (Q9Y6R4 whole entry): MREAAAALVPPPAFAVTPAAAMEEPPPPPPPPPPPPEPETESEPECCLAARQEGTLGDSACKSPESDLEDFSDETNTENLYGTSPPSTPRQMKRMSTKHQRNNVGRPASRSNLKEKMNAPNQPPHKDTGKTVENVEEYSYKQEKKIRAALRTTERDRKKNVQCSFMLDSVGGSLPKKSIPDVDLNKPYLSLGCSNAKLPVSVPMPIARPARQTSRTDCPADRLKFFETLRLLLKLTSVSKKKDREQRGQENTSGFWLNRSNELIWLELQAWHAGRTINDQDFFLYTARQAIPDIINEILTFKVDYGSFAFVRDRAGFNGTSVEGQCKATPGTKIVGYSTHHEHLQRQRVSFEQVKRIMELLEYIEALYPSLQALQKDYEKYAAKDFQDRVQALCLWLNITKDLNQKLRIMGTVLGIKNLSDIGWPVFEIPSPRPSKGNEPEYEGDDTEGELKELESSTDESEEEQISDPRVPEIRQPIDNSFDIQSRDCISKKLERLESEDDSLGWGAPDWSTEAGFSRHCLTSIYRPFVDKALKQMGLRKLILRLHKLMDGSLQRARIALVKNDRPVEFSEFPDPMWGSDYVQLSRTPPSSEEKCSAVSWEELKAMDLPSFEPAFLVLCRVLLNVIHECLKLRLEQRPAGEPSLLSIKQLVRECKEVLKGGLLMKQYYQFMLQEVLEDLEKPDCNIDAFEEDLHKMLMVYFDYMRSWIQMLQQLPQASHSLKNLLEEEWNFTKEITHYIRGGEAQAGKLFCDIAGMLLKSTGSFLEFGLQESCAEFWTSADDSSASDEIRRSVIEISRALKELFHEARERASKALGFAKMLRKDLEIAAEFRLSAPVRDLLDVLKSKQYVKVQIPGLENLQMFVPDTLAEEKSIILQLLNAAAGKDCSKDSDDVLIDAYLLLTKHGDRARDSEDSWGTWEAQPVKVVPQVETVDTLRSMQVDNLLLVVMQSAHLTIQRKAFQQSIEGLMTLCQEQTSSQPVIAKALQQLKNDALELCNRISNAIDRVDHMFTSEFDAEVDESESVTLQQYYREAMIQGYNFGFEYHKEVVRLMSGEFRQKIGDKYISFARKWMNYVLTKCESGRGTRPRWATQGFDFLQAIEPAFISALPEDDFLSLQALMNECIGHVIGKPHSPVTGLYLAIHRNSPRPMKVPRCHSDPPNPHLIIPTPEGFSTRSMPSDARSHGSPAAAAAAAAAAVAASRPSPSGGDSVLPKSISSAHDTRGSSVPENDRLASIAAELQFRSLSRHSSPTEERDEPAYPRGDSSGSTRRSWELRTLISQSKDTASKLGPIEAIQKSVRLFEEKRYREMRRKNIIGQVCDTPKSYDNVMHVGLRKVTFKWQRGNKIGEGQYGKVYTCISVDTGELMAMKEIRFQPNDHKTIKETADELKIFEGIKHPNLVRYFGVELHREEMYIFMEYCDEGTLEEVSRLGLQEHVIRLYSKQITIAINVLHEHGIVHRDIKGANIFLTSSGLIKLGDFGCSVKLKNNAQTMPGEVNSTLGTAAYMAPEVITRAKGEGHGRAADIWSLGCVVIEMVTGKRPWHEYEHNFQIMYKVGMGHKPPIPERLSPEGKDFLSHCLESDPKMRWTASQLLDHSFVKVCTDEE
FER, sequence (P16591 whole entry): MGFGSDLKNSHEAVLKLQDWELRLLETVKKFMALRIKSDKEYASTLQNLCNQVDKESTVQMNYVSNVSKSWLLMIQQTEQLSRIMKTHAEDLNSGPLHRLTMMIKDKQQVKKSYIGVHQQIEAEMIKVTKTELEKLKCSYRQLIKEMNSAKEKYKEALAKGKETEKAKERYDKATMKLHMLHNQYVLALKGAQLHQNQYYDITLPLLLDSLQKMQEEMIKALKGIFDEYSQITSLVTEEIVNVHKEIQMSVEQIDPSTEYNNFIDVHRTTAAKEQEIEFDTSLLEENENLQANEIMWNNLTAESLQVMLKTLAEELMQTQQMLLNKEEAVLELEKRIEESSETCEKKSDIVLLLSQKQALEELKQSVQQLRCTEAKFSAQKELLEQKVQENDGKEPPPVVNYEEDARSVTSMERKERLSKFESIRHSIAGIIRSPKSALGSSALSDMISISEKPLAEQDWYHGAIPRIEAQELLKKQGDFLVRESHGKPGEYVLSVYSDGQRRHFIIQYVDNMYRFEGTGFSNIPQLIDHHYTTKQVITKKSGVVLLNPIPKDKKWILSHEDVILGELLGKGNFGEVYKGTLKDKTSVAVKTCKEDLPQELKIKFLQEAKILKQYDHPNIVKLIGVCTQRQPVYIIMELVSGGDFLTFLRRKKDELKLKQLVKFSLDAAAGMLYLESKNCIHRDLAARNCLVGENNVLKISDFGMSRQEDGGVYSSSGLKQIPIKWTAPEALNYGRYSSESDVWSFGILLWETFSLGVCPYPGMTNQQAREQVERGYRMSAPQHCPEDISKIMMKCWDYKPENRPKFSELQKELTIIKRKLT
MPSK1, sequence (O75716 whole entry): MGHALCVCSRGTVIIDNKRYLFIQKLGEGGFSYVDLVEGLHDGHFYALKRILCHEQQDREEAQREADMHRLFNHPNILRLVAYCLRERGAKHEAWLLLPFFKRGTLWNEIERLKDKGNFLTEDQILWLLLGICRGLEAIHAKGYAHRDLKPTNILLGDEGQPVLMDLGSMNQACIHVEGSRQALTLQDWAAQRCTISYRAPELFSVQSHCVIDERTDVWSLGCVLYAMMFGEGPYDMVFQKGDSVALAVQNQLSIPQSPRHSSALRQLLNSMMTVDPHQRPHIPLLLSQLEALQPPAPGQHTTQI

inhibition at 10 µM (AMPKa1): 94.9% | inhibition at 10 µM (AurA): 94% | inhibition at 10 µM (CDK5): 92.6% | inhibition at 10 µM (Erk1): 77.8% | inhibition at 10 µM (FER): 95.3% | inhibition at 10 µM (GSK3A): 93.7% | Competition % (JAK1): 95% | inhibition at 10 µM (MAP3K4): 92.2% | inhibition at 10 µM (MPSK1): 91.5% | inhibition at 10 µM (MSK2): 95.3% | inhibition at 10 µM (NEK3): 94.8% | inhibition at 10 µM (PKD3): 95.7% | inhibition at 10 µM (RIPK2): 92.2%
Structure (SMILES): CS(=O)(=O)Nc1ccccc1Nc1nc(Nc2cccc(OCCN)c2)ncc1Cl [CZC31326, N-(2-(2-(3-(2-aminoethoxy)phenylamino)-5-chloropyrimidin-4-ylamino)phenyl)methanesulfonamide]
